How the values were obtained:
[1] = target: T1, RARβ (Homo sapiens, UniProt P10826); assay: ligand binding assay, RARβ; settings: Kd line of EC50/(EFFICACY)/Kd, read-out: RAR Kd β
T1 sequence (P10826 1-455): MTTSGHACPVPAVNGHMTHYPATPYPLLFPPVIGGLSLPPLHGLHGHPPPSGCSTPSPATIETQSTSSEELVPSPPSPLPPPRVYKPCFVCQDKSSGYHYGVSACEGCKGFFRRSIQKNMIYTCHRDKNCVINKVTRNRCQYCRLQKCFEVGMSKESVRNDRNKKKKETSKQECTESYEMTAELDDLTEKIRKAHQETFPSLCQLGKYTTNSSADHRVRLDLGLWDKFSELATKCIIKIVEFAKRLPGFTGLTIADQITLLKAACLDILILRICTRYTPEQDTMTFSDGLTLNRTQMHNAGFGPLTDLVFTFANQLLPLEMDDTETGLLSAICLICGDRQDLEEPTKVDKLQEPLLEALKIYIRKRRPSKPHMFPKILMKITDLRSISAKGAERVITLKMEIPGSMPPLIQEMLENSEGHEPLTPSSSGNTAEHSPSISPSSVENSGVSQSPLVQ

[2] = target: T2, RARβ (Homo sapiens, UniProt P10826); assay: chimeric receptor transactivation assay, RARβ; format: cell-based; settings: EC50 line of EC50/(EFFICACY)/Kd, read-out: RAR EC50 β
T2 sequence (P10826 183-417 limits assumed): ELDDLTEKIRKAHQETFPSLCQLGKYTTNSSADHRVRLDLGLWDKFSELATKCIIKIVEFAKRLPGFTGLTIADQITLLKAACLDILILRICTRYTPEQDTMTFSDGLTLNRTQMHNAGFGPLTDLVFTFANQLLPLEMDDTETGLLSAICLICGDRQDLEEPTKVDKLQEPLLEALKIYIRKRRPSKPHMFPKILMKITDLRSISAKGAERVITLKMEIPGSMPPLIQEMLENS
Description: (§1) Assays described below measure the ability of a compound to bind to, and/or activate various retinoid receptor subtypes. When in these assays a compound binds to a given receptor subtype and activates the transcription of a reporter gene through that subtype, then the compound is considered an agonist of that receptor subtype. […] In the below described assays the ability of the compounds to bind to RARα, RARβ, RARγ, RXRα, RXRβ and RXRγ receptors, and the ability or inability of the compounds to activate transcription of a reporter gene through these receptor subtypes can be tested.
(§2) As far as specific assays are concerned, a chimeric receptor transactivation assay which tests for agonist-like activity in the RARα, RARβ, AND RARγ, receptor subtypes, and which is based on work published by Feigner P. L. and Holm M. (1989) Focus, 112 is described in detail in U.S. Pat. No. 5,455,265. The specification of U.S. Pat. No. 5,455,265 is hereby expressly incorporated by reference. The numeric results obtained with several preferred compounds of this invention in this assay are shown below in Table 1.

[3] = target: T3, RARα (Homo sapiens, UniProt P10276); assay: chimeric receptor transactivation assay, RARα; format: cell-based; settings: EC50 line of EC50/(EFFICACY)/Kd, read-out: RAR EC50 α
T3 sequence (P10276 183-462 limits assumed): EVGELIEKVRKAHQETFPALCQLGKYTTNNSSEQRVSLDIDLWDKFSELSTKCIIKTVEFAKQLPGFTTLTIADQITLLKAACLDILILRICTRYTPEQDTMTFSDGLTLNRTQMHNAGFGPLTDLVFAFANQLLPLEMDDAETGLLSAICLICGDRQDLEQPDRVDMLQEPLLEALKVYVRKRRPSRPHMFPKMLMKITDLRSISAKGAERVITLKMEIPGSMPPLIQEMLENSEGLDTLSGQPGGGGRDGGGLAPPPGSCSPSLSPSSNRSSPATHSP
Description: as §1, §2

[4] = target: T4, RARγ (Homo sapiens, UniProt P13631); assay: chimeric receptor transactivation assay, RARγ; format: cell-based; settings: EC50 line of EC50/(EFFICACY)/Kd, read-out: RAR EC50 γ
T4 sequence (P13631 185-419 limits assumed): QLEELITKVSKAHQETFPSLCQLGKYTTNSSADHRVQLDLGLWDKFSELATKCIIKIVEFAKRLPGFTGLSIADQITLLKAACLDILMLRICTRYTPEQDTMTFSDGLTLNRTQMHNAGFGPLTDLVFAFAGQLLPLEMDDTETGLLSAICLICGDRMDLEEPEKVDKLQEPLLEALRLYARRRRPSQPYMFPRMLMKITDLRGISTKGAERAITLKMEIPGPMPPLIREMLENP
Description: as §1, §2

[5] = test system: skin of hairless mice; assay: topical skin irritation test in hairless mice; format: in vivo, mouse; settings: topical in acetone, once daily days 1 through 5, mean ±SD, range 0-21
Description: Mice were housed individually throughout the dosing period.
Doses are disclosed as nmol/25 g.
The grading scale used is as follows:
Values can range from 0-9.
Values can range from 0-8.

CC1(C)CC2(CC2)Oc2ccc(C#Cc3ccc(C(=O)O)c(F)c3)cc21 [Compound 44, 2-Fluoro-benzoic Acid, 4-[(3,4-dihydro-4,4-dimethylspiro[2H-1-benzopyran-2,1′-cyclopropane]-6-yl)ethynyl]-]
Kd [1]: 1.9 nM | EC50 [2]: 1.7 nM | EC50 [3]: 49 nM | EC50 [4]: 7.5 nM

CC(C)OC1(c2ccc(C#Cc3ccc(C(=O)O)cc3)cc2)CC1 [Compound 73, 4-[4-(1-Isopropoxycyclopropyl)-phenylethynyl]-benzoic Acid]
Kd [1]: 26 nM | EC50 [2]: 22.5 nM | EC50 [4]: 91 nM

Cc1cc(C#Cc2ccc(C(=O)O)cc2)ccc1C1(OCC(C)(C)C)CC1 [Compound 89, 4-[4-[1-(2,2-Dimethylpropyloxy)-cyclopropyl]-3-methyl-phenylethynyl]-benzoic Acid]
Kd [1]: 980 nM | EC50 [2]: 26 nM | EC50 [3]: 268 nM | EC50 [4]: 12 nM

COC1(c2ccc(C#Cc3ccc(C(=O)O)cc3)cc2)CC1 [Compound 69, 4-[4-(1-Methoxycyclopropyl)-phenylethynyl]-benzoic Acid]
Kd [1]: 133 nM | EC50 [2]: 12 nM | EC50 [3]: 313 nM | EC50 [4]: 52.6 nM

CC1(C)CCC(=O)c2ccc(C#Cc3ccc(CC(=O)O)cc3)cc21 [Compound 5, 4-[(8,8-Dimethyl-5-oxo-5,6,7,8-tetrahydro-naphthalene-2-yl-ethynyl)-phenyl]-acetic Acid]
Kd [1]: 2810 nM | EC50 [2]: 11 nM | Cutaneous Toxicity Score (Blackjack Score) ([5]; 100 nmole (nmol/25 g)): 0 | Cutaneous Toxicity Score (Blackjack Score) ([5]; 1000 nmole (nmol/25 g)): 6 ± 3

O=C(O)c1ccc(C#Cc2ccc(C3(NCc4ccccc4)CC3)cc2)cc1 [Compound 112, 4-[4-(1-Benzylamino-cyclopropyl)-phenylethynyl]-benzoic Acid]
Kd [1]: 704 nM | EC50 [2]: 335 nM

CCCN(CCC)C1(c2ccc(C#Cc3ccc(C(=O)O)cc3)cc2)CC1 [Compound 110, 4-[4-(1-Dipropylamino-cyclopropyl)-phenylethynyl]-benzoic Acid]
Kd [1]: 409 nM | EC50 [2]: 74 nM | EC50 [4]: 262 nM

Cc1cc(C#Cc2ccc(C(=O)O)cc2)ccc1C1(OC(C)C)CC1 [Compound 85, 4-[4-(1-Isopropoxycyclopropyl)-3-methyl-phenylethynyl]-benzoic Acid]
Kd [1]: 240 nM | EC50 [2]: 3.5 nM | EC50 [3]: 976 nM | EC50 [4]: 2.5 nM

Cc1cc(C#Cc2ccc(C(=O)O)cc2)ccc1C1(OCc2ccccc2)CC1 [Compound 81, 4-[4-(1-Benzyloxycyclopropyl)-3-methyl-phenylethynyl]-benzoic Acid]
Kd [1]: 846 nM | EC50 [2]: 490 nM | EC50 [4]: 183 nM

CCc1cc(C#Cc2ccc(C(=O)O)cc2)ccc1C1(OCc2ccccc2)CC1 [Compound 93, 4-[4-(1-Benzyloxycyclopropyl)-3-ethyl-phenylethynyl]-benzoic Acid]
Kd [1]: 554 nM | EC50 [2]: 20 nM | EC50 [3]: 4820 nM | EC50 [4]: 10 nM

CN(C1CC1)C1CCC(C)(C)c2cc(C#Cc3ccc(CC(=O)O)cc3)ccc21 (stereo not shown) [Compound 8, 4-[(5-(Cyclopropyl-methyl-amino)-8,8-dimethyl-5,6,7,8-tetrahydro-naphthalene-2-yl-ethynyl)-phenyl]-acetic Acid]
Kd [1]: 3780 nM | EC50 [2]: 363 nM | Cutaneous Toxicity Score (Blackjack Score) ([5]; 100 nmole (nmol/25 g)): 5 ± 2 | Cutaneous Toxicity Score (Blackjack Score) ([5]; 300 nmole (nmol/25 g)): 8 ± 3 | Cutaneous Toxicity Score (Blackjack Score) ([5]; 1000 nmole (nmol/25 g)): 12 ± 1

CN(C1CC1)C1CCC(C)(C)c2cc(C#Cc3ccc(C(=O)O)cc3)ccc21 (stereo not shown) [Compound 3, 4-[(5-Cyclopropyl-methyl-amino)-8,8-dimethyl-5,6,7,8-tetrahydro-naphthalene-2yl-ethynyl]-benzoic Acid]
Kd [1]: 0.8 nM | EC50 [2]: 4.8 nM | EC50 [3]: 280 nM | EC50 [4]: 9.8 nM

CCCNC1(c2ccc(C#Cc3ccc(C(=O)O)cc3)cc2)CC1 [Compound 108, 4-[4-(1-Propylamino-cyclopropyl)-phenylethynyl]-benzoic Acid]
Kd [1]: 547 nM | EC50 [2]: 283 nM | EC50 [3]: 6.6 nM | EC50 [4]: 141 nM

CC1(C)CC2(CC2)Oc2ccc(C#Cc3ccc(C(=O)O)cc3)cc21 [Compound 40, Benzoic Acid, 4-[(3,4-dihydro-4,4-dimethylspiro[2H-1-benzopyran-2,1′-cyclopropane]-6-yl)ethynyl]-]
Kd [1]: 1.3 nM | EC50 [2]: 1.2 nM | EC50 [3]: 33 nM | EC50 [4]: 6.8 nM

— patent US6369225B1, “Compounds having activity as inhibitors of cytochrome P450RAI” (Allergan Sales, Inc., priority 2000, dated 2002)
